Measured values from patent US6008356A, “Pharmaceutically available protoberberine salts derivatives, and protoberberine salts derivatives, and protoberberine derivatives and salts thereof” (priority 1998, dated 1999).
Structures can show the parent of a compound that is named as a salt.

Key:
[1] = system: Gram-negative or Gram-positive bacteria, such as Staphylococcus aureus, Staphylococcus hemolyticus, Salmonella typhosa, Shigella dysenteriae, Shigella …; settings: cited from earlier work
C. albicans ATCC 10231 = experiment: MIC; assay type: cell-based; settings: Candida albicans, ATCC10231; C. albicans ATCC 10231; read-out: MIC
C. albicans ATCC 28838 = experiment: MIC; assay type: cell-based, Candida albicans; settings: Candida albicans, ATCC28838; C. albicans ATCC 28838; read-out: MIC
C. albicans ATCC 11651 = experiment: MIC; assay type: cell-based, Candida albicans; settings: Candida albicans, ATCC11651; C. albicans ATCC 11651; read-out: MIC
C. albicans KCTC 1940 = experiment: MIC; assay type: cell-based, Candida albicans; settings: Candida albicans, KCTC1940; C. albicans KCTC 1940; read-out: MIC
C. albicans U.K. = experiment: MIC; assay type: cell-based; settings: Candida albicans; C. albicans U.K.; read-out: MIC
C. albicans OY 019 = experiment: MIC; assay type: cell-based, Candida albicans; settings: Candida albicans, OY019; C. albicans OY 019; read-out: MIC
C. albicans OY 003 = experiment: MIC; assay type: cell-based, Candida albicans; settings: Candida albicans, OY003; C. albicans OY 003; read-out: MIC
C. albicans IFO 1385 = experiment: MIC; assay type: cell-based, Candida albicans; settings: Candida albicans, IFO1385; C. albicans IFO 1385; read-out: MIC
C. parapsilosis = experiment: MIC; assay type: cell-based; settings: Lodderomyces parapsilosis; C. parapsilosis; read-out: MIC
C. glabrata = experiment: MIC; assay type: cell-based; settings: Nakaseomyces glabratus; C. glabrata; read-out: MIC
C. glulliermendi = experiment: MIC; assay type: cell-based; settings: C. glulliermendi; read-out: MIC
C. krusei = experiment: MIC; assay type: cell-based; settings: Pichia kudriavzevii; C. krusei; read-out: MIC
E. floccosum = experiment: MIC; assay type: cell-based, Epidermophyton floccosum; settings: Epidermophyton floccosum; E. floccosum; read-out: MIC
Epidermophyton floccosum = experiment: Antifungal efficacy of creamy formulation against local fungal skin infection; assay type: in vivo, mouse (SKH/1, hairless, male); settings: 0.5% cream, topical
Description: Specific pathogen free SKH/1 male mouse(Hairless) of which weight is 30-35 g and age is 5 weeks, was reared with sterilized water and feed for 12 night/day in the condition of 21-23° C. and of 50% relative humidity. Five mice were allocated by each group. After skin infection, each mouse was taken in separate cage. The strain of microorganism for infection(Epidermophyton floccosum) was cultivated on a flat medium of SDA(Sabouraud Dextrose Agar) for 5-7 days and after confirmation of macrocomidia, 3 ml of RPMI (Rosewell Park Memorial Institute) 1640 media per each flat medium was added thereto and then scraped well using loop to remove hyphae from media. The floating liquid was suspended briefly and then diluted with RPMI 1640 media to adjust the concentration of hyphae to 2×10^6 CFU/ml. Mouse was anesthetized and marked on back site(lumbosacral area) in a shape of circle of which diameter is 1.5 cm. Then, the inner part of marked skin was scratched with sand paper. The scratched part was covered with a filter paper to preserve inoculated microorganism for a long time and thereby stimulating the skin continuously. 0.2 ml of fungus solution of which concentration is adjusted as described above, was inoculated between the skin and filter paper. 5 Days after the inoculation, the filter paper was removed and the infection of skin was examined. The test formulations, 0.5% creamy formulations of the compounds Nos. 62 and 85, 1.0% creamy formulation of Terbinafine(Lamisile cream) and a placebo was applied on the infected areas in a same amount once a day for 5 days. The clinical evaluation on the change of the infected area in 5 days after the inoculation was performed and expressed numerically from 0 to 4. The daily change of the infected area was checked every day. The result of each group was compared with each other.
1: Mild erythema or small number of skin eruption
2: Well-demarcated erythema with scales or mild skin eruption of infected area
3: Wide area of marked skin eruption, scales, swelling or severe skin eruption with partial swelling and scales
4: The same as those of control, or severe skin eruption in entire lesion
The result was calculated as follows;
T: Average score of clinical evaluation in drug treated area
K: Average score of clinical evaluation in placebo control group
Moreover, the antifungal efficacies of the 0.5% creamy formulation of the compounds Nos. 29, 35, 60, 62, 63 and 85, and 1% creamy formulation of Terbinafme (Lamisil cream), which are measured by applying the above formulations on the skin infected with Epidermophyton floccosum of mouse which is the standard animal for the test of local fungal skin infection, i.e, Specific Pathogen Free SKH/1, are described in the following Table 4.

acute oral toxicity = settings: rat, in vivo, po, rats
Description: (§1) Meanwhile, the toxicity test of the compound of the present invention was performed using […]. The compound was suspended in propylene glycol. The resulting suspension was medicated respectively on 5 female rats and 5 male rats(SD) of which age are 5 weeks, via oral after 12 hour starvation. The general symtoms, weight change and lethal case of the above rats were investigated. In cases of tests of the compound Nos. 25, 62, 63 and 85 (delivery of 2,000 mg/kg), the general symtom and weight change were normal and the lethal case was not observed. […] The toxicity data on the compound Nos. 25, 62, 63 and 85 are described in the following Table 5. In light forgoings, the compounds of the present invention are safe in toxicity and have the excellent lethal effect and growth-inhibition effect against fungus.

rats = experiment: acute oral toxicity; settings: rat, in vivo
Description: as §1

salmonella typhimurium = experiment: bacterial reverse mutation test (Ames test); assay type: cell-based
[2] = system: cultured lung cells derived from chinese hamster; assay type: cell-based
male ICR mice = settings: mouse, in vivo
[3] = system: fungi, such as Alternaria sp., Aspergillus flavus, Aspergdlus fumigatus, Candida albicans, Curvularia sp., Drechslera sp., Fusarium sp., Mucor sp., Penicillium …; settings: Mahajan et al. 1982; cited from earlier work
Candida albicans = settings: oral, 350-700 mg/kg; Mirska et al. 1972; cited from earlier work
human = settings: may cause harmful or lethal effect on human in case of being dosed excessively; cited from earlier work
fungal infection of foot = experiment: 0.5% creamy formulation applied on male patients with fungal infection of foot; assay type: in vivo, human (male patients); settings: 0.5% cream once a day for five days
Source text: The above 0.5% creamy formulation of the compound No. 62 was applied on infected area of 10 male patients with fungal infection of foot, in a proper amount once a day for five days.

| SMILES | MIC (C. albicans ATCC 10231) [µg/mL] | MIC (C. albicans ATCC 28838) [µg/mL] | MIC (C. albicans ATCC 11651) [µg/mL] | MIC (C. albicans KCTC 1940) [µg/mL] | MIC (C. albicans U.K.) [µg/mL] | MIC (C. albicans OY 019) [µg/mL] | MIC (C. albicans OY 003) [µg/mL] | MIC (C. albicans IFO 1385) [µg/mL] | MIC (C. parapsilosis) [µg/mL] | MIC (C. glabrata) [µg/mL] | MIC (C. glulliermendi) [µg/mL] | MIC (C. krusei) [µg/mL] | MIC (E. floccosum) [µg/mL] | Efficacy (%) 0 day later (Epidermophyton floccosum) [%] | LD50 (acute oral toxicity; female) [mg/kg] | LD50 (acute oral toxicity; male) [mg/kg] | lethal case (rats) | AMES test (salmonella typhimurium) | chromosome abnormality test [2] | nucleus test (micronucleous test) (male ICR mice) | other results |
| --- | --- | --- | --- | --- | --- | --- | --- | --- | --- | --- | --- | --- | --- | --- | --- | --- | --- | --- | --- | --- | --- |
| COc1ccc2c(c1OC)CN1CCc3cc4c(cc3C1C2)OCO4 (stereo not shown) [tetrahydroberberine] | – | – | – | – | – | – | – | – | – | – | – | – | – | – | – | – | – | – | – | – | antibacterial effect of derivatives without quaternary ammonium salt ([1]; Pitea et al. 1972): exhibits less effect |
| COc1ccc2cc3[n+](cc2c1OC)CCc1cc2c(cc1-3)OCO2 [Berberine chloride] | – | – | – | – | – | – | – | – | – | – | – | – | – | – | – | – | – | – | – | – | antibacterial activity ([1]; Ukita et al. 1949): exhibits antibacterial activity |
| COc1ccc2c(Cc3ccc(C(C)C)cc3)c3[n+](cc2c1OC)CCc1cc2c(cc1-3)OCO2 [compound 63, 13-(4-i-propylbenzyl)berberine chloride] | 6.25 | 0.78 | 0.78 | 1.56 | 6.25 | 1.56 | 6.25 | 6.25 | > 100 | > 100 | 12.5 | 3.12 | 12.5 | 0 | > 2000 | > 2500 | not observed | negative | negative | negative | Efficacy (%) 1 day later (Epidermophyton floccosum): 42.5%; Efficacy (%) 2 day later (Epidermophyton floccosum): 52.5%; Efficacy (%) 3 day later (Epidermophyton floccosum): 59.8%; Efficacy (%) 4 day later (Epidermophyton floccosum): 64.6%; Efficacy (%) 5 day later (Epidermophyton floccosum): 73.6%; Efficacy (%) 6 day later (Epidermophyton floccosum): 75.6%; Efficacy (%) 7 day later (Epidermophyton floccosum): 80.2% |
| COc1ccc2c(Cc3cccc(C(F)(F)F)c3)c3[n+](cc2c1OC)CCc1cc2c(cc1-3)OCO2 [compound 25, 13-(3-trifluoromethylbenzyl)berberine chloride] | – | – | – | – | – | – | – | – | – | – | – | – | – | – | > 2500 | > 3000 | not observed | negative | negative | negative | – |
| COc1ccc2cc3[n+](cc2c1OC)CCc1cc2c(cc1-3)OCO2 [berberine sulfate] | – | – | – | – | – | – | – | – | – | – | – | – | – | – | – | – | – | – | – | – | concentration inhibiting the growth of fungi [3]: 10 to 25 mg/mL; effect in mice infected with Candida albicans (Candida albicans): effective; toxicity (human): exhibits intense toxicity |
| COc1ccc2c(Cc3ccc(C(C)(C)C)cc3)c3[n+](cc2c1OC)CCc1cc2c(cc1-3)OCO2 [compound 62, 13-(4-t-butylbenzyl)berberine chloride] | 6.25 | 0.78 | 0.78 | 0.78 | 6.25 | 0.78 | 0.78 | 6.25 | > 100 | > 100 | 12.5 | 3.12 | 12.5 | 0 | > 2700 | > 3700 | not observed | negative | negative | negative | Efficacy (%) 1 day later (Epidermophyton floccosum): 40.0%; Efficacy (%) 2 day later (Epidermophyton floccosum): 55.4%; Efficacy (%) 3 day later (Epidermophyton floccosum): 69.4%; Efficacy (%) 4 day later (Epidermophyton floccosum): 72.6%; Efficacy (%) 5 day later (Epidermophyton floccosum): 76.3%; Efficacy (%) 6 day later (Epidermophyton floccosum): 79.2%; Efficacy (%) 7 day later (Epidermophyton floccosum): 85.4%; remedial effect (fungal infection of foot; in 8 of 10 male patients): more than 98%; patients exhibiting remedial effect more than 98% (fungal infection of foot; of 10 male patients): 8 Patients |
| CCCOc1cc2c(cc1OCCC)-c1cc3ccc(OCCC)c(OCCC)c3c[n+]1CC2 [compound 85, 2,3,9,10-tetrapropoxy protoberberine iodide] | 6.25 | 0.78 | 0.4 | 0.4 | 50 | 0.4 | 0.4 | 6.25 | 12.5 | > 100 | > 100 | 1.56 | > 100 | 0 | > 5000 | > 5000 | not observed | negative | negative | negative | Efficacy (%) 1 day later (Epidermophyton floccosum): 34.5%; Efficacy (%) 2 day later (Epidermophyton floccosum): 38.8%; Efficacy (%) 3 day later (Epidermophyton floccosum): 42.5%; Efficacy (%) 4 day later (Epidermophyton floccosum): 54.6%; Efficacy (%) 5 day later (Epidermophyton floccosum): 63.2%; Efficacy (%) 6 day later (Epidermophyton floccosum): 68.0%; Efficacy (%) 7 day later (Epidermophyton floccosum): 70.5% |
